In patent US20210007351A1 (priority 2018, published 2021):

Tested on: Phytophthora infestans Genotype 13_A2
Type: cell-based
Details: 0.5%, 1% and 2% (all concentrations) in CMA with 0.5% DMSO; 7 days and 14 days post inoculation; 23 °C

Row | SMILES | average mycelial extension into amended CMA agar (growth)
1 | CC1(C)C2CCC1(C)C(O)C2O (racemic) [(+/−)-exo,exo-2,3-Camphanediol] | heavily reduced or absent altogether
2 | C=CCc1ccc(O)c(OC)c1 [Eugenol, eugenol] | heavily reduced or absent altogether
